Results published in ChEMBL document CHEMBL3585245, “Synthesis and antiproliferative evaluation of 9-methoxy-6-(piperazin-1-yl)-11H-indeno[1,2-c]quinoline-11-one derivatives. Part 4” (Medchemcomm, 2014).
Calls of active or inactive are those of the source. The rule behind the calls is not given here.

Columns and labels:
[1] = Antiproliferative activity against human SKHep cells incubated for 72 hrs by MTT assay; type: functional, cell-based
SAS = assay: Antiproliferative activity against human SAS cells incubated for 72 hrs by MTT assay; type: functional, cell-based
Detroit 551 = assay: Antiproliferative activity against human Detroit 551 cells incubated for 72 hrs by MTT assay; type: functional, cell-based; conditions: Detroit 551, 72 h
MDA-MB-231 = assay: Antiproliferative activity against human MDA-MB-231 cells incubated for 72 hrs by MTT assay; type: functional, cell-based; conditions: MDA-MB-231, 72 h
AGS = assay: Antiproliferative activity against human AGS cells incubated for 72 hrs by MTT assay; type: functional, cell-based
HeLa = assay: Antiproliferative activity against human HeLa cells incubated for 72 hrs by MTT assay; type: functional, cell-based
[2] = Antiproliferative activity against human 786-O cells incubated for 72 hrs by MTT assay; type: functional, cell-based; conditions: 786-0, 72 h
NCI-H1299 [3] = assay: Antiproliferative activity against human H1299 cells incubated for 72 hrs by MTT assay; type: functional, cell-based; conditions: NCI-H1299, 72 h
NCI-H1299 [4] = assay: Induction of apoptosis in human H1299 cells assessed as late apoptotic cells level at 1 uM annexin V and propidium iodide double staining based flow cytometry (reference value: 1.9 +/- 0.12%); type: functional
NCI-H1299 [5] = assay: Induction of apoptosis in human H1299 cells assessed as late apoptotic cells level at 5 uM annexin V and propidium iodide double staining based flow cytometry (reference value: 1.9 +/- 0.12%); type: functional
NCI-H1299 [6] = assay: Induction of apoptosis in human H1299 cells assessed as early apoptotic cells level at 5 uM annexin V and propidium iodide double staining based flow cytometry (reference value: 0.4 +/- 0.17%); type: functional
NCI-H1299 [7] = assay: Induction of apoptosis in human H1299 cells assessed as early apoptotic cells level at 1 uM annexin V and propidium iodide double staining based flow cytometry (reference value: 0.4 +/- 0.17%); type: functional
NCI-H1299 [8] = assay: Induction of apoptosis in human H1299 cells assessed as early apoptotic cells level at 10 uM annexin V and propidium iodide double staining based flow cytometry (reference value: 0.4 +/- 0.17%); type: functional
NCI-H1299 [9] = assay: Induction of apoptosis in human H1299 cells assessed as late apoptotic cells level at 10 uM annexin V and propidium iodide double staining based flow cytometry (reference value: 1.9 +/- 0.12%); type: functional
NCI-H1299 [10] = assay: Induction of DNA damage in human H1299 cells at 10 uM incubated for 24 hrs by single cell electrophoresis-based alkaline comet assay; type: functional

Row | SMILES | IC50 [1] [µM] | IC50 (SAS) [µM] | IC50 (Detroit 551) [µM] | IC50 (MDA-MB-231) [µM] | IC50 (AGS) [µM] | IC50 (HeLa) [µM] | IC50 [2] [µM] | IC50 (NCI-H1299 [3]) [µM] | Activity (NCI-H1299 [4]) [%] | Activity (NCI-H1299 [5]) [%] | Activity (NCI-H1299 [6]) [%] | Activity (NCI-H1299 [7]) [%] | Activity (NCI-H1299 [8]) [%] | Activity (NCI-H1299 [9]) [%] | Activity (NCI-H1299 [10])
1 | CNCC(=O)N1CCN(c2nc3ccccc3c3c2-c2ccc(OC)cc2C3=O)CC1 | 4.83 | 7.4 | 4.84 | 5.92 | 7.15 | 2.04 | 6.2 | 5.14 | – | – | – | – | – | – | –
2 | COc1ccc2c(c1)C(=O)c1c-2c(N2CCN(C(=O)CCN3CCNCC3)CC2)nc2ccccc12 | 4.93 | 7.7 | 3.35 | 6.26 | 5.46 | 4.71 | 1.5 | 5.87 | – | – | – | – | – | – | –
3 | COc1ccc2c(c1)C(=O)c1c-2c(N2CCN(CC(O)CN(C)C)CC2)nc2ccccc12 (stereo not drawn) | 2.22 | 6.9 | 2.58 | 6.11 | 7.86 | 2.47 | 6.8 | 6.84 | – | – | – | – | – | – | –
4 | COc1ccc2c(c1)C(=O)c1c-2c(N2CCN(C(=O)CNCCCN(C)C)CC2)nc2ccccc12 | 13.1 | > 30 | 8.89 | 6 | 5.62 | 10.8 | 9.97 | 5.99 | – | – | – | – | – | – | –
5 | COc1ccc2c(c1)C(=O)c1c-2c(N2CCN(CC3CO3)CC2)nc2ccccc12 (stereo not drawn) | > 30 | > 30 | – | 7.65 | 21.4 | 10.7 | 19.1 | 7.92 | 4.51 | 4.98 | 1.57 | 1.83 | 3.29 | 7.57 | Active
6 | COc1ccc2c(c1)/C(=N\O)c1c-2c(N2CCNCC2)nc2ccccc12 | 3.75 | 6.1 | – | 5.87 | 1.74 | 2.35 | 1.2 | 5.72 | – | – | – | – | – | – | –
7 | COc1ccc2c(c1)/C(=N\OCC(O)CN(C)C)c1c-2c(N2CCN(CC(O)CN(C)C)CC2)nc2ccccc12 (stereo not drawn) | 2.46 | 9 | 2.05 | 0.7 | 18.6 | 0.98 | 13.9 | 0.68 | – | – | – | – | – | – | –
8 | COc1ccc2c(c1)C(=O)c1c-2c(N2CCN(C(=O)CCNCCCN(C)C)CC2)nc2ccccc12 | 8.6 | 13.5 | 6.42 | 5.7 | 2.8 | 5.43 | 5.9 | 5.44 | – | – | – | – | – | – | –
9 | COc1ccc2c(c1)C(=O)c1c-2c(N2CCN(C(=O)CCNCCN(C)C)CC2)nc2ccccc12 | 5.08 | 8.8 | 2.53 | 7.44 | 4.94 | 4.78 | 7.03 | 5.65 | – | – | – | – | – | – | –
10 | CC[C@@]1(O)C(=O)OCc2c1cc1n(c2=O)Cc2cc3ccccc3nc2-1 [CAMPTOTHECIN] | 0.22 | 6 | 0.99 | 2.11 | 23.8 | 0.18 | 0.015 | 3.14 | – | – | – | – | – | – | –
11 | COc1ccc2c(c1)C(=O)c1c-2c(N2CCN(C(=O)CN(C)C)CC2)nc2ccccc12 | 19.2 | > 30 | 31.5 | 6.15 | 8.7 | 11.8 | 14.1 | 6.28 | – | – | – | – | – | – | –
